Measurements from US6770287B1, “Biocidal cellulosic material” (The Regents of the University of California, priority 2000, dated 2004).
Marks after values point to notes of the source that are not given here.

Tested on: E. coli enhanced green fluorescent protein (B)GFP 0157:H7
Assay: Biocidal wood blocks: CFU recovered after contact
Type: cell-based
Conditions: for average percent reduction of bacterium as compared to the untreated control blocks: estimated from the data of all trials
Protocol: The blocks were prepared by dividing large cutting boards into squares with sides measuring 5 cm using a table saw. The blocks were of the face-grain configuration. The edges were then smoothened with 120 or 180 grit sandpaper as needed to achieve uniformity among all blocks. The blocks were visually inspected to be the correct size and any blocks that appeared to deviate from the standard were remeasured and discarded if they were an incorrect size.
The blocks (Bemis Manufacturing Company, 300 Mill Street, PO Box 901, Sheboygan Falls, Wis., 53085-0901) were labeled based on concentration and ascending numbers. The blocks were immersed in solutions containing the following two formulations, respectively: […]
And the blocks were taken out from the solutions after they are completely soaked by the chemicals, and then dried at 80° C. in an oven for a prolonged time till they are completely dry. The curing of the blocks was conducted at 150° C. for over 30 minutes.
A bleach process is necessary to activate the biocide. A bleach solution containing about 0.05% sodium hypochlorite was prepared from a commercial Clorox liquid (containing 5.25% sodium hypochlorite). The volume of the solution was based on a liquid to wood mass ratio of 50:1. The blocks were scrubbed lightly on a sponge saturated with the chlorine solution from the bath for five strokes. The blocks were placed face down in the diluted bleach solution for 15 minutes. After 15 minutes the blocks were transferred directly to a cooling rack (to allow even drying) in a laminar flow hood that had been previously sterilized with a 70% ethanol solution and left with the exhaust turned on. The blocks were then left in the laminar flow hood until completely dry (at least five hours).
1. A sample of E. coli enhanced green fluorescent protein (B)GFP 0157:H7 was inoculated into a test tube of LB broth with 0.01% ampicillin and 0.01% novobiocin antibiotics (to be referred to as LBAN). The test tube was labeled and then incubated at 37° C. for 24 hours. The sample was then serial diluted with LBAN broth. 0.1 mL of the broth was then inoculated onto LB or Brain Heart Infusion (BHI) agar, also with ampicillin and 0.01% novobiocin antibiotics. The concentrations of 10^−7, 10^−6, and 10^−5 were spread plated. These plates were allowed to incubate for 24 hours at 37° C. The CFU/mL was determined by averaging the colonies from the plates of the most easily countable concentration.
7. The timer was started and the inoculum was spread on the blocks at the rate of one per 30 seconds.
8. 0.2 mL of the inoculum was spread onto the blocks using the pipet tip and pipetter. A new pipet tip was used for each block.
9. After the correct (variable) contact time, the blocks were carefully pressed on the agar surface for 20 seconds and then the plates were inverted and placed in an incubator at 37° C. for 24 hours.
10. The colonies were counted for each plate and thus the kills were determined for each concentration.

[1] = trial A, 5% biocide, inoculum 2.5 × 10^5, contact time 5 minutes
[2] = trial A, 10% biocide, inoculum 2.5 × 10^5, contact time 5 minutes
[3] = trial B, 5% biocide, inoculum 1.8 × 10^5, contact time 5 minutes
[4] = trial B, 10% biocide, inoculum 1.8 × 10^5, contact time 5 minutes
[5] = trial C, 5% biocide, inoculum 1.4 × 10^5, contact time 5 minutes
[6] = trial C, 10% biocide, inoculum 1.4 × 10^5, contact time 5 minutes
[7] = trial D, 5% biocide, inoculum 1.4 × 10^5, contact time 5 minutes
[8] = trial D, 10% biocide, inoculum 1.4 × 10^5, contact time 5 minutes
[9] = trial E, 5% biocide, inoculum 1.0 × 10^4, contact time 5 minutes
[10] = trial E, 10% biocide, inoculum 1.0 × 10^4, contact time 5 minutes
[11] = trial F, 5% biocide, inoculum 1.0 × 10^4, contact time 5 minutes
[12] = trial F, 10% biocide, inoculum 1.0 × 10^4, contact time 5 minutes
[13] = trial G, 5% biocide, inoculum 3.3 × 10^4, contact time 2.5 minutes
[14] = trial G, 10% biocide, inoculum 3.3 × 10^4, contact time 2.5 minutes
[15] = trial H, 5% biocide, inoculum 3.3 × 10^4, contact time 5 minutes
[16] = trial H, 10% biocide, inoculum 3.3 × 10^4, contact time 5 minutes
[17] = trial I, 5% biocide, inoculum 1.0 × 10^4, contact time 5 minutes
[18] = trial I, 10% biocide, inoculum 1.0 × 10^4, contact time 5 minutes
[19] = trial J, 1st line, 5% biocide, inoculum 1.37 × 10^5, contact time 5 minutes
[20] = trial J, 1st line, 10% biocide, inoculum 1.37 × 10^5, contact time 5 minutes
[21] = trial J, 2nd line, 5% biocide, inoculum 1.37 × 10^5, contact time 5 minutes
[22] = trial J, 2nd line, 10% biocide, inoculum 1.37 × 10^5, contact time 5 minutes
[23] = trial K, New Blocks, 5% biocide, inoculum 1.2 × 10^4, contact time 5 minutes
[24] = trial K, New Blocks, 10% biocide, inoculum 1.2 × 10^4, contact time 5 minutes
[25] = trial K, Old Blocks, 5% biocide, inoculum 1.2 × 10^4, contact time 5 minutes
[26] = trial K, Old Blocks, 10% biocide, inoculum 1.2 × 10^4, contact time 5 minutes
[27] = trial L, New Blocks, 5% biocide, inoculum 8.0 × 10^1, contact time 5 minutes
[28] = trial L, New Blocks, 10% biocide, inoculum 8.0 × 10^1, contact time 5 minutes
[29] = trial L, Old Blocks, 5% biocide, inoculum 8.0 × 10^1, contact time 5 minutes
[30] = trial L, Old Blocks, 10% biocide, inoculum 8.0 × 10^1, contact time 5 minutes
[31] = trial M, New Blocks, 5% biocide, inoculum 6.45 × 10^3, contact time 10 minutes
[32] = trial M, New Blocks, 10% biocide, inoculum 6.45 × 10^3, contact time 10 minutes
[33] = trial M, Old Blocks, 5% biocide, inoculum 6.45 × 10^3, contact time 10 minutes
[34] = trial M, Old Blocks, 10% biocide, inoculum 6.45 × 10^3, contact time 10 minutes
[35] = trial N, New Blocks, 5% biocide, inoculum 6.6 × 10^4 CFU/mL, contact time 10 minutes
[36] = trial N, New Blocks, 10% biocide, inoculum 6.6 × 10^4 CFU/mL, contact time 10 minutes
[37] = trial N, Old Blocks, 5% biocide, inoculum 6.6 × 10^4 CFU/mL, contact time 10 minutes
[38] = trial N, Old Blocks, 10% biocide, inoculum 6.6 × 10^4 CFU/mL, contact time 10 minutes

CC1(C)C(=O)N(CO)C(=O)N1CO [Anti-2, 1,3-dimethylol-5,5-dimethylhydantoin]
average percent reduction of bacterium as compared to the untreated control blocks (5% blocks): about 86%
average percent reduction of bacterium as compared to the untreated control blocks (10% concentration blocks): 91%
means CFU/block ± standard deviation [1]: 125.3 ± 74.1 CFU/block
percentage reduction compared to control [1]: (85.0%)**
means CFU/block ± standard deviation [2]: 166.3 ± 132.2 CFU/block
percentage reduction compared to control [2]: (81.2%)**
means CFU/block ± standard deviation [3]: 11.6 ± 11.4 CFU/block
percentage reduction compared to control [3]: (97.6%)
means CFU/block ± standard deviation [4]: 26.3 ± 27.6 CFU/block
percentage reduction compared to control [4]: (94.5%)
means CFU/block ± standard deviation [5]: 65 ± 23.5 CFU/block
percentage reduction compared to control [5]: (85.4%)
means CFU/block ± standard deviation [6]: 48 ± 44.2 CFU/block
percentage reduction compared to control [6]: (89.2%)
means CFU/block ± standard deviation [7]: 19.8 ± 6.8 CFU/block
percentage reduction compared to control [7]: (95.0%)
means CFU/block ± standard deviation [8]: 26.8 ± 20.1 CFU/block
percentage reduction compared to control [8]: (93.2%)
means CFU/block ± standard deviation [9]: 2.5 ± 2.9 CFU/block
percentage reduction compared to control [9]: (97.7%)
means CFU/block ± standard deviation [10]: 2.3 ± 3.4 CFU/block
percentage reduction compared to control [10]: (97.8%)
means CFU/block ± standard deviation [11]: 25.9 ± 13.8 CFU/block
percentage reduction compared to control [11]: (94.3%)
means CFU/block ± standard deviation [12]: 31.7 ± 25.1 CFU/block
percentage reduction compared to control [12]: (93.1%)
means CFU/block ± standard deviation [13]: 20.8 ± 13.8 CFU/block
percentage reduction compared to control [13]: (89.8%)
means CFU/block ± standard deviation [14]: 10.3 ± 7.8 CFU/block
percentage reduction compared to control [14]: (95.0%)
means CFU/block ± standard deviation [15]: 14 ± 11.4 CFU/block
percentage reduction compared to control [15]: (80.1%)
means CFU/block ± standard deviation [16]: 7.4 ± 4.0 CFU/block
percentage reduction compared to control [16]: (89.9%)
means CFU/block ± standard deviation [17]: 12.3 ± 8.4 CFU/block
percentage reduction compared to control [17]: (73.8%)
means CFU/block ± standard deviation [18]: 6 ± 4.2 CFU/block
percentage reduction compared to control [18]: (87.2%)
means CFU/block ± standard deviation [19]: 63.7 ± 45.1 CFU/block
percentage reduction compared to control [19]: (80.6%)
means CFU/block ± standard deviation [20]: 37.9 ± 14.3 CFU/block
percentage reduction compared to control [20]: (88.5%)
means CFU/block ± standard deviation [21]: 45.8 ± 19.2 CFU/block
percentage reduction compared to control [21]: (85.8%)
means CFU/block ± standard deviation [22]: 14.6 ± 12.5 CFU/block
percentage reduction compared to control [22]: (95.5%)
means CFU/block ± standard deviation (trial J, 3rd line, 5% biocide, inoculum 1.37 × 10^5, contact time 5 minutes): 37.4 ± 15.8 CFU/block
means CFU/block ± standard deviation (trial J, 3rd line, 10% biocide, inoculum 1.37 × 10^5, contact time 5 minutes): 29.7 ± 25.1 CFU/block
means CFU/block ± standard deviation [23]: 7.7 ± 3.0 CFU/block
percentage reduction compared to control [23]: (90.7%)
means CFU/block ± standard deviation [24]: 4.9 ± 5.8 CFU/block
percentage reduction compared to control [24]: (94.1%)
means CFU/block ± standard deviation [25]: 12.0 ± 9.4 CFU/block
percentage reduction compared to control [25]: (77.3%)
means CFU/block ± standard deviation [26]: 9.3 ± 5.4 CFU/block
percentage reduction compared to control [26]: (82.4%)
means CFU/block ± standard deviation [27]: 0.17 ± 0.41 CFU/block
percentage reduction compared to control [27]: (98.1%)
means CFU/block ± standard deviation [28]: 0 ± 0 CFU/block
percentage reduction compared to control [28]: (100%
means CFU/block ± standard deviation [29]: 1.3 ± 1.3 CFU/block
percentage reduction compared to control [29]: (88.9%)
means CFU/block ± standard deviation [30]: 0.67 ± 0.71 CFU/block
percentage reduction compared to control [30]: (94.3%)
means CFU/block ± standard deviation [31]: 3.3 ± 2.4 CFU/block
percentage reduction compared to control [31]: (60.2%
means CFU/block ± standard deviation [32]: 1.6 ± 1.8 CFU/block
percentage reduction compared to control [32]: (80.7%)
means CFU/block ± standard deviation [33]: 3.3 ± 2.1 CFU/block
percentage reduction compared to control [33]: (82.4%)
means CFU/block ± standard deviation [34]: 3.3 ± 2.4 CFU/block
percentage reduction compared to control [34]: (82.4%)
means CFU/block ± standard deviation [35]: 17.8 ± 4.8 CFU/block
percentage reduction compared to control [35]: (88.2%)
means CFU/block ± standard deviation [36]: 6.2 ± 5.8 CFU/block
percentage reduction compared to control [36]: (95.9%)
means CFU/block ± standard deviation [37]: 20.7 ± 6.1 CFU/block
percentage reduction compared to control [37]: (86.5%)
means CFU/block ± standard deviation [38]: 15.9 ± 6.7 CFU/block
percentage reduction compared to control [38]: (89.6%)
more effective reductions of the bacterium on newer blocks than on old blocks (trials J-N, new versus old blocks): 5-10%
